Results from patent publication US20240016781A1, “TREATMENT OF KRAS MUTANT CANCERS” (MEI Pharma, Inc., priority 2020, published 2024).
Like-named read-outs stand apart in the source and are kept apart here.

How the values were obtained:
Experiment in all cases: 72-hour CellTiter-Glo 2.0 growth inhibition screen (single agent, 9x9 combination dose matrix);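 for Best CI Level: inhibition effect level at which the best CI was calculated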
Type in all cases: cell-based
SW48 = settings: for EC50: SW48, 72 h
SW837 = settings: for EC50: SW837, 72 h
HCC44 = settings: for EC50: HCC44, 72 h
NCI-H358 = settings: for EC50: NCI-H358, 72 h
KYSE-410 = settings: for EC50: KYSE-410, 72 h
[1] = Homo sapiens, SW48, Colorectal, Additional Single Agent Responses (inhibition, % I), 72 h
[2] = Homo sapiens, SW48, Colorectal, growth inhibition (GI) curve, single agent, 72 h
[3] = SW48 (KRAS WT), enhancer + MEI-522 (Voruciclib), 72 h;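 for Best CI Level: inhibition effect level at which the best CI was calculated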
[4] = enhancer combined with MEI-522 (Voruciclib), SW48 (Colorectal), 72 hours, inhibition data
[5] = Homo sapiens, SW837, Colorectal, Additional Single Agent Responses (inhibition, % I), 72 h
[6] = Homo sapiens, SW837, Colorectal, growth inhibition (GI) curve, single agent, 72 h
[7] = SW837 (KRAS G12C), enhancer + MEI-522 (Voruciclib), 72 h;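 for Best CI Level: inhibition effect level at which the best CI was calculated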
[8] = enhancer combined with MEI-522 (Voruciclib), SW837 (Colorectal), 72 hours, inhibition data
[9] = HCC44 (KRAS G12C), enhancer + MEI-522 (Voruciclib), 72 h;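 for Best CI Level: inhibition effect level at which the best CI was calculated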
[10] = Homo sapiens, HCC44, Lung, Additional Single Agent Responses (inhibition, % I), 72 h
[11] = Homo sapiens, HCC44, Lung, growth inhibition (GI) curve, single agent, 72 h
[12] = enhancer combined with MEI-522 (Voruciclib), HCC44 (Lung), 72 hours, inhibition data
[13] = NCl-H358 (KRAS G12C), enhancer + MEI-522 (Voruciclib), 72 h
[14] = enhancer combined with MEI-522 (Voruciclib), NCl-H358 (Lung), 72 hours, inhibition data
[15] = Homo sapiens, KYSE-410, Esophageal, Additional Single Agent Responses (inhibition, % I), 72 h
[16] = Homo sapiens, KYSE-410, Esophageal, growth inhibition (GI) curve, single agent, 72 h
[17] = KYSE-410 (KRAS G12C), enhancer + MEI-522 (Voruciclib), 72 h;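 for Best CI Level: inhibition effect level at which the best CI was calculated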
[18] = enhancer combined with MEI-522 (Voruciclib), KYSE-410 (Esophageal), 72 hours, inhibition data

Compound CN1CCN(c2ccc(OC(F)(F)F)c(Nc3ncc4c(n3)-c3c(c(C(N)=O)nn3CCO)CC4)c2)CC1 [Onvansertib] has an EC50 (SW48; [1]) of 13.8 nM, an EC50 (SW48; [2]) of 15.4 nM and an IC50 (SW48; [1]) of 14.3 nM. For the same compound, the Emax (SW48; Homo sapiens, SW48, Colorectal, Additional Single Agent Responses, 72 h, read-out: Max Response (% I)) was 95%, the GI50 (SW48; [2]) was 13.4 nM and the Emax (SW48; Homo sapiens, SW48, Colorectal, growth inhibition (GI), single agent, 72 h, read-out: Max Response (% GI)) was 177%. The “Best CI” value (SW48; [3]) was 0.72, the “Bliss Volume” value (SW48; [3]) was 6.27 and the HSA volume (SW48; [3]) was −3.43. For the same compound, the “Loewe Volume” value (SW48; [3]) was −1.93, the “Synergy Score” value (SW48; [3]) was 7.50 and the “Response Area” value (SW48; SW48, Colorectal, Additional Single Agent Responses (inhibition, % I), 72 h) was 4.36. The “Response Area” value (SW48; SW48, Colorectal, growth inhibition (GI), AUC, single agent, 72 h) was 7.09, the “Best CI” value (SW48; [4]) was 0.76 and the “Bliss Volume” value (SW48; [4]) was −0.78. The HSA volume (SW48; [4]) was −0.51, the “Loewe Volume” value (SW48; [4]) was −0.74 and the “Synergy Score” value (SW48; [4]) was 1.28. For the same compound, the Best CI Level (SW48; enhancer combined with MEI-522 (Voruciclib), SW48 (Colorectal), 72 hours, inhibition data, unit assumed) was 20%, the EC50 (SW837; [5]) was 35.4 nM and the EC50 (SW837; [6]) was 42.1 nM. For the same compound, the IC50 (SW837; [5]) was 53.4 nM, the Emax (SW837; Homo sapiens, SW837, Colorectal, Additional Single Agent Responses, 72 h, read-out: Max Response (% I)) was 76% and the GI50 (SW837; [6]) was 34.1 nM. For the same compound, the Emax (SW837; Homo sapiens, SW837, Colorectal, growth inhibition (GI), single agent, 72 h, read-out: Max Response (% GI)) was 118%, the “Best CI” value (SW837; [7]) was 0.78 and the “Bliss Volume” value (SW837; [7]) was 0.66. For the same compound, the HSA volume (SW837; [7]) was −1.30, the “Loewe Volume” value (SW837; [7]) was −4.09 and the “Synergy Score” value (SW837; [7]) was 0.88. The “Response Area” value (SW837; SW837, Colorectal, Additional Single Agent Responses (inhibition, % I), 72 h) was 3.32, the “Response Area” value (SW837; SW837, Colorectal, growth inhibition (GI), AUC, single agent, 72 h) was 5.06 and the “Best CI” value (SW837; [8]) was 0.76. The “Best CI Level” value (SW837; [8]) was 20, the “Bliss Volume” value (SW837; [8]) was −1.39 and the HSA volume (SW837; [8]) was −0.59. The “Loewe Volume” value (SW837; [8]) was −2.03, the “Synergy Score” value (SW837; [8]) was 0.33 and the “Best CI” value (HCC44; [9]) was 0.65. For the same compound, the “Bliss Volume” value (HCC44; [9]) was 4.26, the HSA volume (HCC44; [9]) was 1.33 and the “Loewe Volume” value (HCC44; [9]) was 0.16. For the same compound, the “Synergy Score” value (HCC44; [9]) was 3.96, the “Response Area” value (HCC44; HCC44, Lung, Additional Single Agent Responses (inhibition, % I), 72 h) was 3.83 and the “Response Area” value (HCC44; HCC44, Lung, growth inhibition (GI), AUC, single agent, 72 h) was 5.16. It also gave an EC50 (HCC44; [10]) of 18.5 nM, an EC50 (HCC44; [11]) of 22 nM and an IC50 (HCC44; [10]) of 25.3 nM. The Emax (HCC44; Homo sapiens, HCC44, Lung, Additional Single Agent Responses, 72 h, read-out: Max Response (% I)) was 81%, the GI50 (HCC44; [11]) was 18.7 nM and the Emax (HCC44; Homo sapiens, HCC44, Lung, growth inhibition (GI), single agent, 72 h, read-out: Max Response (% GI)) was 112%. The “Best CI” value (HCC44; [12]) was 0.80, the “Bliss Volume” value (HCC44; [12]) was −0.85 and the HSA volume (HCC44; [12]) was 0.68. The “Loewe Volume” value (HCC44; [12]) was −0.34, the “Synergy Score” value (HCC44; [12]) was 0.67 and the Best CI Level (HCC44; enhancer combined with MEI-522 (Voruciclib), HCC44 (Lung), 72 hours, inhibition data, unit assumed) was 20%. The EC50 (NCI-H358; Homo sapiens, NCl-H358, Lung, Additional Single Agent Responses (inhibition, % I), 72 h) was 16.7 nM, the EC50 (NCI-H358; Homo sapiens, NCl-H358, Lung, growth inhibition (GI) curve, single agent, 72 h) was 18.2 nM and the IC50 (NCI-H358; Homo sapiens, NCI-H358, NCl-H358, Lung, Additional Single Agent Responses (inhibition, % I), 72 h) was 20.3 nM. For the same compound, the Emax (NCI-H358; Homo sapiens, NCI-H358, NCl-H358, Lung, Additional Single Agent Responses, 72 h, read-out: Max Response (% I)) was 82%, the GI50 (NCI-H358; Homo sapiens, NCI-H358, NCl-H358, Lung, growth inhibition (GI) curve, single agent, 72 h) was 18.3 nM and the Emax (NCI-H358; Homo sapiens, NCI-H358, NCl-H358, Lung, growth inhibition (GI), single agent, 72 h, read-out: Max Response (% GI)) was 127%. The “Best CI” value (NCI-H358; [13]) was 0.27, the “Bliss Volume” value (NCI-H358; [13]) was −1.00 and the HSA volume (NCI-H358; [13]) was −5.36. The “Loewe Volume” value (NCI-H358; [13]) was −3.73, the “Synergy Score” value (NCI-H358; [13]) was 6.46 and the “Response Area” value (NCI-H358; NCl-H358, Lung, Additional Single Agent Responses (inhibition, % I), 72 h) was 3.36. For the same compound, the “Response Area” value (NCI-H358; NCl-H358, Lung, growth inhibition (GI), AUC, single agent, 72 h) was 4.69, the “Best CI” value (NCI-H358; [14]) was 0.38 and the “Best CI Level” value (NCI-H358; [14]) was 75. The “Bliss Volume” value (NCI-H358; [14]) was −3.69, the HSA volume (NCI-H358; [14]) was −3.63 and the “Loewe Volume” value (NCI-H358; [14]) was −3.23. For the same compound, the “Synergy Score” value (NCI-H358; [14]) was 1.36, the EC50 (KYSE-410; [15]) was 34.9 nM and the EC50 (KYSE-410; [16]) was 34.7 nM. It also gave an IC50 (KYSE-410; [15]) of 55.5 nM, an Emax (KYSE-410; Homo sapiens, KYSE-410, Esophageal, Additional Single Agent Responses, 72 h, read-out: Max Response (% I)) of 65% and a GI50 (KYSE-410; [16]) of 43.1 nM. The Emax (KYSE-410; Homo sapiens, KYSE-410, Esophageal, growth inhibition (GI), single agent, 72 h, read-out: Max Response (% GI)) was 78%, the “Best CI” value (KYSE-410; [17]) was 0.60 and the “Bliss Volume” value (KYSE-410; [17]) was −1.39. For the same compound, the HSA volume (KYSE-410; [17]) was −2.18, the “Loewe Volume” value (KYSE-410; [17]) was −2.01 and the “Synergy Score” value (KYSE-410; [17]) was 0.29. The “Response Area” value (KYSE-410; KYSE-410, Esophageal, Additional Single Agent Responses (inhibition, % I), 72 h) was 2.89, the “Response Area” value (KYSE-410; KYSE-410, Esophageal, growth inhibition (GI), AUC, single agent, 72 h) was 3.49 and the “Best CI” value (KYSE-410; [18]) was 0.68. The “Bliss Volume” value (KYSE-410; [18]) was −1.63, the HSA volume (KYSE-410; [18]) was −1.72 and the “Loewe Volume” value (KYSE-410; [18]) was −1.53. For the same compound, the “Synergy Score” value (KYSE-410; [18]) was 0.20 and the Best CI Level (KYSE-410; enhancer combined with MEI-522 (Voruciclib), KYSE-410 (Esophageal), 72 hours, inhibition data, unit assumed) was 20%.
